According to patent US9580396B2, “C6-spiro iminothiadiazine dioxides as BACE inhibitors, compositions, and their use” (Merck Sharp & Dohme Corp., priority 2012, dated 2017):

What was measured:
[1] = biological target: soluble human BACE1 catalytic domain (Homo sapiens (Human), UniProt P56817); experiment: BACE1 HTRF FRET Assay; assay type: biochemical; settings: Ki calculated from IC50 using the Cheng-Prusoff equation; QSY7-APPswe-Eu substrate, pH 5.0
Description: Na^+-Acetate pH 5.0; 1% Brij-35; Glycerol; Dimethyl Sulfoxide (DMSO); Recombinant human soluble BACE1 catalytic domain (>95% pure); APP Swedish mutant peptide substrate (QSY7-APP^swe-Eu): QSY7-EISEVNLDAEFC-Europium-amide.
A homogeneous time-resolved FRET assay can be used to determine IC50 values for inhibitors of the soluble human BACE1 catalytic domain. This assay monitors the increase of 620 nm fluorescence that resulted from BACE1 cleavage of an APPswedish APP^swe mutant peptide FRET substrate (QSY7-EISEVNLDAEFC-Europium-amide). This substrate contains an N-terminal QSY7 moiety that serves as a quencher of the C-terminal Europium fluorophore (620 nm Em). In the absence of enzyme activity, 620 nm fluorescence is low in the assay and increased linearly over 3 hours in the presence of uninhibited BACE1 enzyme Inhibition of BACE1 cleavage of the QSY7-APP^swe-Eu substrate by inhibitors is manifested as a suppression of 620 nm fluorescence.
Varying concentrations of inhibitors at 3× the final desired concentration in a volume of 10 ul are preincubated with purified human BACE1 catalytic domain (3 nM in 10 μl) for 30 minutes at 30° C. in reaction buffer containing 20 mM Na-Acetate pH 5.0, 10% glycerol, 0.1% Brij-35 and 7.5% DSMO. Reactions are initiated by addition of 10 μl of 600 nM QSY7-APP^swe-Eu substrate (200 nM final) to give a final reaction volume of 30 μl in a 384 well Nunc HTRF plate. The reactions are incubated at 30° C. for 1.5 hours. The 620 nm fluorescence is then read on a Rubystar HTRF plate reader (BMG Labtechnologies) using a 50 millisecond delay followed by a 400 millisecond acquisition time window Inhibitor IC50 values are derived from non-linear regression analysis of concentration response curves. Ki values are then calculated from IC50 values using the Cheng-Prusoff equation using a previously determined […] of 8 μM for the QSY7-APP^swe-Eu substrate at BACE1.

[2] = biological target: purified human autoBACE-2 (Homo sapiens (Human), UniProt Q9Y5Z0); experiment: BACE-2 Assay (BACE-HTRF assay); assay type: biochemical; settings: Ki calculated from IC50 using the Cheng-Prusoff equation; QSY7-EISEVNLDAEFC-Eu-amide substrate, pH 5.0; read-out: BACE2 Ki
Protocol: Inhibitor IC50s at purified human autoBACE-2 are determined in a time-resolved endpoint proteolysis assay that measures hydrolysis of the QSY7-[…]-Eu-amide FRET peptide substrate (BACE-HTRF assay). […] DMSO is present at 5% final concentration in the assay. Following laser excitation of sample wells at 320 nm, the fluorescence signal at 620 nm is collected for 400 ms following a 50 μs delay on a RUBYstar HTRF plate reader (BMG Labtechnologies). Raw RFU data is normalized to maximum (1.0 nM BACE/DMSO) and minimum (no enzyme/DMSO) RFU values. […] The Ki values are calculated from the IC50 using the Cheng-Prusoff equation.

Chain of soluble human BACE1 catalytic domain (P56817 75-416): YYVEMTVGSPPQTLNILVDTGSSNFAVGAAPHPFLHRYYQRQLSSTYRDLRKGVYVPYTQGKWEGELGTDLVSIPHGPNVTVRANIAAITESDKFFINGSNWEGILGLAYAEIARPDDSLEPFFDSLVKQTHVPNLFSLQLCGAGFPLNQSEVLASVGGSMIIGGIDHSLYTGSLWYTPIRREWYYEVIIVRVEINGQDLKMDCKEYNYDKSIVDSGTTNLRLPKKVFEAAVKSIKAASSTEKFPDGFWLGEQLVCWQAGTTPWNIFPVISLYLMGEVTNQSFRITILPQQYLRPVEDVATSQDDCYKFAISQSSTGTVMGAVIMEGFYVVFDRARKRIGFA

Row | Structure (SMILES) | Ki [1] [µM] | Ki [2] [µM]
1 | CN1C(=N)N[C@@]2(CCOc3ccc(NC(=O)c4ccc(Cl)cn4)cc32)CS1(=O)=O [Example 1a] | 0.07 | 0.017
2 | COc1ccc(C(=O)Nc2ccc3c(c2)[C@]2(CCO3)CS(=O)(=O)N(C)C(=N)N2)nc1 [Example 1b] | 0.233 | 0.13
3 | COCC(=O)Nc1ccc2c(c1)[C@]1(CCO2)CS(=O)(=O)N(C)C(=N)N1 [Example 1c] | 2.01 | 0.341
4 | CN1C(=N)N[C@@]2(CCOc3ccc(NC(=O)C(F)F)cc32)CS1(=O)=O [Example 1d] | 2.27 | 0.728
5 | CN1C(=N)N[C@@]2(CCOc3ccc(NC(=O)c4ccc(OCF)cn4)cc32)CS1(=O)=O [Example 2a] | 0.091 | 0.059
6 | Cc1nc(C(=O)Nc2ccc3c(c2)[C@]2(CCO3)CS(=O)(=O)N(C)C(=N)N2)co1 [Example 2b] | 0.142 | 0.02
7 | CN1C(=N)N[C@@]2(CCOc3ccc(NC(=O)c4ccc(C#N)cn4)cc32)CS1(=O)=O [Example 2c] | 0.026 | 0.051
8 | CN1C(=N)N[C@@]2(CCOc3ccc(NC(=O)c4ncc(C(F)(F)F)cn4)cc32)CS1(=O)=O [Example 2d] | 0.579 | 0.78
9 | CN1C(=N)N[C@@]2(CCOc3ccc(NC(=O)c4ncc(Cl)cc4F)cc32)CS1(=O)=O [Example 2e] | 0.049 | 0.009
10 | C#CCOc1cnc(C(=O)Nc2ccc3c(c2)[C@]2(CCO3)CS(=O)(=O)N(C)C(=N)N2)cn1 [Example 2f] | 0.013 | 0.138
11 | CN1C(=N)N[C@@]2(CCOc3ccc(NC(=O)c4cnc(OCC(F)(F)F)cn4)cc32)CS1(=O)=O [Example 2g] | 0.07 | 0.699
12 | C#CCOc1ccc(C(=O)Nc2ccc3c(c2)[C@]2(CCO3)CS(=O)(=O)N(C)C(=N)N2)nc1 [Example 2h] | 0.033 | 0.313
13 | COc1cnc(C(=O)Nc2ccc3c(c2)[C@]2(CCO3)CS(=O)(=O)N(C)C(=N)N2)c(C)c1 [Example 2i] | 0.168 | 0.029
14 | COc1cnc(C(=O)Nc2ccc3c(c2)[C@]2(CCO3)CS(=O)(=O)N(C)C(=N)N2)c(C)n1 [Example 2j] | 0.294 | 0.16
15 | Cc1cc(C#N)cnc1C(=O)Nc1ccc2c(c1)[C@]1(CCO2)CS(=O)(=O)N(C)C(=N)N1 [Example 2k] | 0.015 | 0.026
16 | COc1cnc(C(=O)Nc2ccc3c(c2)[C@]2(CCO3)CS(=O)(=O)N(C)C(=N)N2)cn1 [Example 2l] | 0.212 | 0.254
17 | CN1C(=N)N[C@@]2(CCOc3ccc(NC(=O)c4cnc(C(F)(F)F)cn4)cc32)CS1(=O)=O [Example 2m] | 0.303 | 1.15
18 | CN1C(=N)N[C@@]2(CCOc3ccc(NC(=O)c4cc5ccccn5n4)cc32)CS1(=O)=O [Example 2n] | 1.49 | 0.337
19 | CN1C(=N)N[C@@]2(CCOc3ccc(NC(=O)c4ccc(C(F)(F)F)cn4)cc32)CS1(=O)=O [Example 2o] | 0.077 | 0.283
20 | CN1C(=N)N[C@@]2(CCOc3ccc(NC(=O)c4ccn(C(F)F)n4)cc32)CS1(=O)=O [Example 2p] | 0.02 | 0.003
21 | Cc1nc(C(=O)Nc2ccc3c(c2)[C@]2(CCO3)CS(=O)(=O)N(C)C(=N)N2)no1 [Example 2q] | 0.367 | 0.031
22 | CN1C(=N)N[C@@]2(CCOc3ccc(NC(=O)c4cn5cc(C#N)ccc5n4)cc32)CS1(=O)=O [Example 2r] | 0.604 | 6.91
23 | CN1C(=N)N[C@@]2(CCOc3ccc(NC(=O)c4cnsn4)cc32)CS1(=O)=O [Example 2s] | 0.24 | 0.046
24 | CN1C(=N)N[C@@]2(CCOc3ccc(NC(=O)c4ccc(F)cn4)cc32)CS1(=O)=O [Example 2t] | 0.205 | 0.031
25 | CN1C(=N)N[C@@]2(CCOc3ccc(NC(=O)c4ccc(OC(F)F)cn4)cc32)CS1(=O)=O [Example 2u] | 0.044 | 0.166
26 | CN1C(=N)N[C@@]2(CCOc3ccc(NC(=O)c4ccc(OC(F)(F)F)cn4)cc32)CS1(=O)=O [Example 2v] | 0.052 | 0.261

Row | Structure (SMILES) | Ki [1] [µM] | Ki [2] [µM]
27 | CN1C(=N)N[C@@]2(CCOc3ccc(NC(=O)c4cnc(OCCF)cn4)cc32)CS1(=O)=O [Example 2w] | 0.229 | 0.572
28 | CN1C(=N)N[C@@]2(COCc3ccc(NC(=O)c4ccc(Cl)cn4)cc32)CS1(=O)=O [Example 3a] | 0.272 | 0.058
29 | COc1ccc(C(=O)Nc2ccc3c(c2)[C@]2(COC3)CS(=O)(=O)N(C)C(=N)N2)nc1 [Example 3b] | 1.16 | 0.354
30 | CN1C(=N)N[C@@]2(CCCc3ccc(NC(=O)c4ccc(Cl)cn4)cc32)CS1(=O)=O [Example 4a] | 0.058 | 0.015
31 | COc1ccc(C(=O)Nc2ccc3c(c2)[C@]2(CCC3)CS(=O)(=O)N(C)C(=N)N2)nc1 [Example 4b] | 0.228 | 0.067
32 | COCC(=O)Nc1ccc2c(c1)[C@]1(CCC2)CS(=O)(=O)N(C)C(=N)N1 [Example 4c] | 2.12 | 0.26
33 | CN1C(=N)N[C@@]2(CCCc3ccc(NC(=O)C(F)F)cc32)CS1(=O)=O [Example 4d] | 2.58 | 0.515
34 | CN1C(=N)N[C@@]2(CCCc3ccc(NC(=O)c4cn5cc(C#N)ccc5n4)cc32)CS1(=O)=O [Example 5a] | 0.636 | 1.13
35 | CN1C(=N)N[C@@]2(CCCc3ccc(NC(=O)c4ccc(F)cn4)cc32)CS1(=O)=O [Example 5b] | 0.192 | 0.028
36 | CN1C(=N)N[C@@]2(CCCc3ccc(NC(=O)c4ccc(OC(F)F)cn4)cc32)CS1(=O)=O [Example 5c] | 0.059 | 0.126
37 | CN1C(=N)N[C@@]2(CCCc3ccc(NC(=O)c4ccc(OC(F)(F)F)cn4)cc32)CS1(=O)=O [Example 5d] | 0.055 | 0.219
38 | CN1C(=N)N[C@@]2(CCCc3ccc(NC(=O)c4cnc(OCCF)cn4)cc32)CS1(=O)=O [Example 5e] | 0.257 | 0.487
39 | Cc1nc(C(=O)Nc2ccc3c(c2)[C@]2(CCC3)CS(=O)(=O)N(C)C(=N)N2)no1 [Example 5f] | 0.314 | 0.016
40 | CN1C(=N)N[C@@]2(CCCc3ccc(NC(=O)c4ccc(OCF)cn4)cc32)CS1(=O)=O [Example 5g] | 0.077 | 0.033
41 | Cc1nc(C(=O)Nc2ccc3c(c2)[C@]2(CCC3)CS(=O)(=O)N(C)C(=N)N2)co1 [Example 5h] | 0.108 | 0.011
42 | CN1C(=N)N[C@@]2(CCCc3ccc(NC(=O)c4ccc(C#N)cn4)cc32)CS1(=O)=O [Example 5i] | 0.019 | 0.044
43 | CN1C(=N)N[C@@]2(CCCc3ccc(NC(=O)c4ncc(C(F)(F)F)cn4)cc32)CS1(=O)=O [Example 5j] | 0.468 | 0.423
44 | CN1C(=N)N[C@@]2(CCCc3ccc(NC(=O)c4ncc(Cl)cc4F)cc32)CS1(=O)=O [Example 5k] | 0.054 | 0.008
45 | C#CCOc1cnc(C(=O)Nc2ccc3c(c2)[C@]2(CCC3)CS(=O)(=O)N(C)C(=N)N2)cn1 [Example 5l] | 0.011 | 0.077
46 | CN1C(=N)N[C@@]2(CCCc3ccc(NC(=O)c4cnc(OCC(F)(F)F)cn4)cc32)CS1(=O)=O [Example 5m] | 0.072 | 0.508
47 | C#CCOc1ccc(C(=O)Nc2ccc3c(c2)[C@]2(CCC3)CS(=O)(=O)N(C)C(=N)N2)nc1 [Example 5n] | 0.042 | 0.221
48 | COc1cnc(C(=O)Nc2ccc3c(c2)[C@]2(CCC3)CS(=O)(=O)N(C)C(=N)N2)c(C)c1 [Example 5o] | 0.119 | 0.017
49 | COc1cnc(C(=O)Nc2ccc3c(c2)[C@]2(CCC3)CS(=O)(=O)N(C)C(=N)N2)c(C)n1 [Example 5p] | 0.224 | 0.123
50 | Cc1cc(C#N)cnc1C(=O)Nc1ccc2c(c1)[C@]1(CCC2)CS(=O)(=O)N(C)C(=N)N1 [Example 5q] | 0.009 | 0.017
51 | COc1cnc(C(=O)Nc2ccc3c(c2)[C@]2(CCC3)CS(=O)(=O)N(C)C(=N)N2)cn1 [Example 5r] | 0.144 | 0.177
